From patent publication US10538498B2, “1,3,4-oxadiazole sulfonamide derivative compounds as histone deacetylase 6 inhibitor, and the pharmaceutical composition comprising the same” (Chong Kun Dang Pharmaceutical Corp., priority 2015, dated 2020)

Biological target: T1, human recombinant HDAC6 (Homo sapiens, UniProt Q9UBN7)
T1 construct: purchased Calbiochem 382180
T1 sequence (Q9UBN7 1-1215): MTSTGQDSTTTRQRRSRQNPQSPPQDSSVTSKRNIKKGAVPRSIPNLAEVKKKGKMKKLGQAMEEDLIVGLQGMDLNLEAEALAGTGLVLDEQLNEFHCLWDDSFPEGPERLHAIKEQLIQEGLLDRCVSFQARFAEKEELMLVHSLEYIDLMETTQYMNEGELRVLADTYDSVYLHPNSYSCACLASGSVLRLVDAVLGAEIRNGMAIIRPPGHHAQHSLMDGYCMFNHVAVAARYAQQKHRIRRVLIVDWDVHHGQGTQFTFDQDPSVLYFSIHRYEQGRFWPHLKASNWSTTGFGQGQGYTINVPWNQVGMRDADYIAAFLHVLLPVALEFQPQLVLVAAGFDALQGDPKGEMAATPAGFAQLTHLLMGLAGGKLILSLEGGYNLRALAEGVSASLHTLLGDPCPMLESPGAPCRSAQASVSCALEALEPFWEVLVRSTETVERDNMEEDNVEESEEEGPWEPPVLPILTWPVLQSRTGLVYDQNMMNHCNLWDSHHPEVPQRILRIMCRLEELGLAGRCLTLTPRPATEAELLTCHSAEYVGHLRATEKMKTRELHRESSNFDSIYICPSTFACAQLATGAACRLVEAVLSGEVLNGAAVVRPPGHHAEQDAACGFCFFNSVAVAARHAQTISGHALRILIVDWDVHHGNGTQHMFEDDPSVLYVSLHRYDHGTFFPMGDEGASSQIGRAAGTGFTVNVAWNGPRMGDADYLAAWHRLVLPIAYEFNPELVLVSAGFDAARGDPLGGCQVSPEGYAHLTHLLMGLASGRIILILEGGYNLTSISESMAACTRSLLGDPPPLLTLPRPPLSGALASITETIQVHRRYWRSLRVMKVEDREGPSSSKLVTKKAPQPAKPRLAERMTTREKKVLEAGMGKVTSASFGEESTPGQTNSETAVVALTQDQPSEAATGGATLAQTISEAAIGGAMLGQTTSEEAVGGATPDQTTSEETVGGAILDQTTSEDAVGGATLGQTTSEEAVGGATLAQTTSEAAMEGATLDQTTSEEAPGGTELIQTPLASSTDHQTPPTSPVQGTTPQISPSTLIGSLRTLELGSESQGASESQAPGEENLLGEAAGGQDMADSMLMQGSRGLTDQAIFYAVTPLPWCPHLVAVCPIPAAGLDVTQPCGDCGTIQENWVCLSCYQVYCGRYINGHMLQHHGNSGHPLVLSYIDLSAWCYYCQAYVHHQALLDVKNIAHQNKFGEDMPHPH
Test: HDAC6 enzyme activity inhibition assay (HDAC Fluorimetric Drug Discovery Kit)
Type: biochemical
Conditions: for HDAC6 selectivity (fold): HDAC1 vs HDAC6; for IC50: same protocol as the HDAC1 enzyme activity test
In short: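 Recombinant enzyme (0.3 μg) was incubated with 5-fold serially diluted compound and 10 μM Fluor de Lys-SIRT1 substrate for 60 min at 30° C. Developer II was then added for 30 min, fluorescence read at Ex 360/Em 460, and IC50 values were calculated.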

For `O=S(=O)(CCN1CC[C@H](CO)C1)N(Cc1ccc(-c2nnc(C(F)F)o2)cc1)c1ccccc1` [Compound 11804, (S)—N-(4-(5-(difluoromethyl)-1,3,4-oxadiazol-2-yl)benzyl)-2-(3-(hydroxymethyl)pyrrolidin-1-yl)-N-phenylethane-1-sulfonamide], the “HDAC6 selectivity (fold)” value was 3115 fold and the IC50 was 32.1 nM.
`CN(C)CCS(=O)(=O)N(Cc1ccc(-c2nnc(C(F)F)o2)cc1)c1ccccc1` [Compound 11797, N-(4-(5-(difluoromethyl)-1,3,4-oxadiazol-2-yl)benzyl)-2-(dimethylamino)-N-phenylethane-1-sulfonamide] was tested, and the “HDAC6 selectivity (fold)” value was 821 fold and the IC50 was 122 nM.
With `Cc1cccc(N(Cc2ccc(-c3nnc(C(F)F)o3)cn2)S(=O)(=O)C2CCN(C3CN(C(=O)CO)C3)CC2)c1` [Compound 11839, N-((5-(5-(difluoromethyl)-1,3,4-oxadiazol-2-yl)pyridin-2-yl)methyl)-1-(1-(2-hydroxyacetyl)azetidin-3-yl)-N-(m-tolyl)piperidine-4-sulfonamide] the “HDAC6 selectivity (fold)” value was 2236 fold and the IC50 was 44.7 nM.
With `CN1CCC(S(=O)(=O)N(Cc2ccc(-c3nnc(C(F)F)o3)cn2)c2ccccc2)CC1` [Compound 11367, N-((5-(5-(difluoromethyl)-1,3,4-oxadiazol-2-yl)pyridin-2-yl)methyl)-1-methyl-N-phenylpiperidine-4-sulfonamide] the “HDAC6 selectivity (fold)” value was 6250 fold and the IC50 was 16 nM.
`CS(=O)(=O)N(Cc1ccc(-c2nnc(C(F)F)o2)cc1F)c1ccccc1` [Compound 11170, N-(4-(5-(difluoromethyl)-1,3,4-oxadiazol-2-yl)-2-fluorobenzyl)-N-phenylmethanesulfonamide] was tested, and the “HDAC6 selectivity (fold)” value was 7143 fold and the IC50 was 14 nM.
With `Cc1cccc(N(Cc2ccc(-c3nnc(C(F)F)o3)cn2)S(C)(=O)=O)c1` [Compound 11355, N-((5-(5-(difluoromethyl)-1,3,4-oxadiazol-2-yl)pyridin-2-yl)methyl)-N-(m-tolyl)methanesulfonamide] the “HDAC6 selectivity (fold)” value was 6250 fold and the IC50 was 16 nM.
In the case of `CS(=O)(=O)N(Cc1ccc(-c2nnc(C(F)F)o2)cn1)c1ccccc1` [Compound 11172, N-((5-(5-(difluoromethyl)-1,3,4-oxadiazol-2-yl)pyridin-2-yl)methyl)-N-phenylmethanesulfonamide], the “HDAC6 selectivity (fold)” value is reported as 11111 fold and the IC50 is reported as 9 nM.
`CS(=O)(=O)N(Cc1ccc(-c2nnc(C(F)F)o2)cc1F)c1cncc(F)c1` [Compound 11284, N-(4-(5-(difluoromethyl)-1,3,4-oxadiazol-2-yl)-2-fluorobenzyl)-N-(5-fluoropyridin-3-yl)methanesulfonamide] was tested, and the “HDAC6 selectivity (fold)” value was 3704 fold and the IC50 was 27 nM.
`CS(=O)(=O)N(Cc1ccc(-c2noc(C(F)(F)F)n2)cc1)Cc1ccc(-c2nnc(C(F)F)o2)cc1F` [Compound 11389, N-(4-(5-(difluoromethyl)-1,3,4-oxadiazol-2-yl)-2-fluorobenzyl)-N-(4-(5-(trifluoromethyl)-1,2,4-oxadiazol-3-yl)benzyl)methanesulfonamide] was tested, and the “HDAC6 selectivity (fold)” value was 104 fold and the IC50 was 960 nM.
`CS(=O)(=O)N(Cc1ccc(-c2nnc(C(F)(F)F)o2)cc1F)c1ccc(Br)cc1` [Compound 11277, N-(4-bromophenyl)-N-(2-fluoro-4-(5-(trifluoromethyl)-1,3,4-oxadiazol-2-yl)benzyl)methanesulfonamide] was tested, and the “HDAC6 selectivity (fold)” value was 535 fold and the IC50 was 187 nM.
With `O=S(=O)(CCN1CCN(c2ccc(F)cc2)CC1)N(Cc1ccc(-c2nnc(C(F)F)o2)cc1)c1ccccc1` [Compound 11769, N-(4-(5-(difluoromethyl)-1,3,4-oxadiazol-2-yl)benzyl)-2-(4-(4-fluorophenyl)piperazin-1-yl)-N-phenylethane-1-sulfonamide] the “HDAC6 selectivity (fold)” value was 359 fold and the IC50 was 278 nM.
In the case of `CS(=O)(=O)N(Cc1ccc(-c2nnc(C(F)F)o2)cc1)c1nccs1` [Compound 11739, N-(4-(5-(difluoromethyl)-1,3,4-oxadiazol-2-yl)benzyl)-N-(thiazol-2-yl)methanesulfonamide], the “HDAC6 selectivity (fold)” value is reported as 148 fold and the IC50 is reported as 675 nM.
`CS(=O)(=O)N1CCN(CCS(=O)(=O)N(Cc2ccc(-c3nnc(C(F)F)o3)cc2)c2ccccc2)CC1` [Compound 11634, N-(4-(5-(difluoromethyl)-1,3,4-oxadiazol-2-yl)benzyl)-2-(4-(methylsulfonyl)piperazin-1-yl)-N-phenylethane-1-sulfonamide] was tested, and the “HDAC6 selectivity (fold)” value was 2083 fold and the IC50 was 48 nM.
With `CC(C)(C)OC(=O)N1CC2(CCN(CCS(=O)(=O)N(Cc3ccc(-c4nnc(C(F)F)o4)cc3)c3ccccc3)CC2)C1` [Compound 11814, tert-butyl 7-(2-(N-(4-(5-(difluoromethyl)-1,3,4-oxadiazol-2-yl)benzyl)-N-phenylsulfamoyl)ethyl)-2,7-diazaspiro[3.5]nonane-2-carboxylate] the “HDAC6 selectivity (fold)” value was 88 fold and the IC50 was 1130 nM.
In the case of `CCN1CCC(S(=O)(=O)N(Cc2ccc(-c3nnc(C(F)F)o3)cc2F)c2ccccc2)CC1` [Compound 11373, N-(4-(5-(difluoromethyl)-1,3,4-oxadiazol-2-yl)-2-fluorobenzyl)-1-ethyl-N-phenylpiperidine-4-sulfonamide], the “HDAC6 selectivity (fold)” value is reported as 10000 fold and the IC50 is reported as 10 nM.
In the case of `CC(C)N1CC(N2CCC(S(=O)(=O)N(Cc3ccc(-c4nnc(C(F)F)o4)cn3)c3cccc(Cl)c3)CC2)C1` [Compound 11781, N-(3-chlorophenyl)-N-((5-(5-(difluoromethyl)-1,3,4-oxadiazol-2-yl)pyridin-2-yl)methyl)-1-(1-isopropylazetidin-3-yl)piperidine-4-sulfonamide], the “HDAC6 selectivity (fold)” value is reported as 5319 fold and the IC50 is reported as 18.8 nM.
In the case of `O=S(=O)(CCCN1CCCC1)N(Cc1ccc(-c2nnc(C(F)F)o2)cn1)c1ccc(F)c(Cl)c1` [Compound 11721, N-(3-chloro-4-fluorophenyl)-N-((5-(5-(difluoromethyl)-1,3,4-oxadiazol-2-yl)pyridin-2-yl)methyl)-3-(pyrrolidin-1-yl)propane-1-sulfonamide], the “HDAC6 selectivity (fold)” value is reported as 4739 fold and the IC50 is reported as 21.1 nM.
`O=S(=O)(CCN1CCN(CCc2ccccc2)CC1)N(Cc1ccc(-c2nnc(C(F)F)o2)cc1)c1ccccc1` [Compound 11771, N-(4-(5-(difluoromethyl)-1,3,4-oxadiazol-2-yl)benzyl)-2-(4-phenethylpiperazin-1-yl)-N-phenylethane-1-sulfonamide] was tested, and the “HDAC6 selectivity (fold)” value was 311 fold and the IC50 was 321 nM.
For `O=S(=O)(CCN1CCN(c2ccccc2)CC1)N(Cc1ccc(-c2nnc(C(F)F)o2)cc1)c1ccccc1` [Compound 11766, N-(4-(5-(difluoromethyl)-1,3,4-oxadiazol-2-yl)benzyl)-N-phenyl-2-(4-phenylpiperazin-1-yl)ethane-1-sulfonamide], the “HDAC6 selectivity (fold)” value was 319 fold and the IC50 was 313 nM.
With `CS(=O)(=O)N(Cc1ccc(-c2nnc(C(F)(F)F)o2)cn1)c1cccc(C(F)(F)F)c1` [Compound 11323, N-((5-(5-(trifluoromethyl)-1,3,4-oxadiazol-2-yl)pyridin-2-yl)methyl)-N-(3-(trifluoromethyl)phenyl)methanesulfonamide] the “HDAC6 selectivity (fold)” value was 909 fold and the IC50 was 110 nM.
